Source: US8916557B2, “Substituted 4-Aryl-N-phenyl-1,3,5-triazin-2-amines” (Bayer Intellectual Property GmbH, priority 2011, dated 2014)

What was measured:
CDK2/CycE = target: T1, CDK2/CycE (Homo sapiens, UniProt P24941); assay: CDK2/CycE kinase assay (TR-FRET); assay type: biochemical; settings: Method 2, 10 μM ATP
T1 construct: GST; purchased ProQinase GmbH (Freiburg, Germany); host or cells: insect cells (Sf9)
Description: 2. CDK2/CycE Kinase Assay:
CDK2/CycE-inhibitory activity of compounds of the present invention was quantified employing the CDK2/CycE TR-FRET assay as described in the following paragraphs:
Recombinant fusion proteins of GST and human CDK2 and of GST and human CycE, expressed in insect cells (Sf9) and purified by Glutathion-Sepharose affinity chromatography, were purchased from ProQinase GmbH (Freiburg, Germany). As substrate for the kinase reaction biotinylated peptide biotin-Ttds-[…] (C-terminus in amid form) was used which can be purchased e.g. form the company JERINI Peptide Technologies (Berlin, Germany).
For the assay 50 nl of a 100fold concentrated solution of the test compound in DMSO was pipetted into a black low volume 384well microtiter plate (Greiner Bio-One, Frickenhausen, Germany), 2 μl of a solution of CDK2/CycE in aqueous assay buffer [50 mM Tris/HCl pH 8.0, 10 mM MgCl2, 1.0 mM dithiothreitol, 0.1 mM sodium ortho-vanadate, 0.01% (v/v) Nonidet-P40 (Sigma)] were added and the mixture was incubated for […] at 22° C. to allow pre-binding of the test compounds to the enzyme before the start of the kinase reaction. Then the kinase reaction was started by the addition of 3 μl of a solution of adenosine-tri-phosphate (ATP, 16.7 μM=>final conc. in the 5 it assay volume is 10 μM) and substrate (1.25 μM=>final conc. in the 5 it assay volume is 0.75 μM) in assay buffer and the resulting mixture was incubated for a reaction time of […] at 22° C. The concentration of CDK2/CycE was adjusted depending of the activity of the enzyme lot and was chosen appropriate to have the assay in the linear range, typical concentrations were in the range of 130 ng/ml. The reaction was stopped by the addition of 5 it of a solution of TR-FRET detection reagents (0.2 μM streptavidine-XL665 [Cisbio Bioassays, Codolet, France] and 1 nM anti-RB(pSer807/pSer811)-antibody from BD Pharmingen [#558389] and 1.2 nM LANCE EU-W1024 labeled anti-mouse IgG antibody [Perkin-Elmer, product no. AD0077]) in an aqueous EDTA-solution (100 mM EDTA, 0.2% (w/v) bovine serum albumin in 100 mM HEPES/NaOH pH 7.0).
(§1) The resulting mixture was incubated 1 h at 22° C. to allow the formation of complex between the phosphorylated biotinylated peptide and the detection reagents. Subsequently the amount of phosphorylated substrate was evaluated by measurement of the resonance energy transfer from the Eu-chelate to the streptavidine-XL. Therefore, the fluorescence emissions at 620 nm and 665 nm after excitation at 350 nm was measured in a TR-FRET reader, e.g. a Rubystar (BMG Labtechnologies, Offenburg, Germany) or a Viewlux (Perkin-Elmer). The ratio of the emissions at 665 nm and at 622 nm was taken as the measure for the amount of phosphorylated substrate.

CDK9/CycT1 = target: T2, CDK9/CycT1 (Homo sapiens, UniProt P50750); assay: CDK9/CycT1 kinase assay (TR-FRET); assay type: biochemical; settings: Method 1, 10 μM ATP
T2 construct: Recombinant full-length His-tagged human CDK9 and CycT1; His; purchased Invitrogen PV4131; host or cells: insect cells
Description: 1. CDK9/CycT1 Kinase Assay:
CDK9/CycT1-inhibitory activity of compounds of the present invention was quantified employing the CDK9/CycT1 TR-FRET assay as described in the following paragraphs:
Recombinant full-length His-tagged human CDK9 and CycT1, expressed in insect cells and purified by Ni-NTA affinity chromatography, were purchased from Invitrogen (Cat. No PV4131). As substrate for the kinase reaction biotinylated peptide biotin-Ttds-[…] (C-terminus in amid form) was used which can be purchased e.g. form the company JERINI Peptide Technologies (Berlin, Germany). For the assay 50 nl of a 100fold concentrated solution of the test compound in DMSO was pipetted into a black low volume 384well microtiter plate (Greiner Bio-One, Frickenhausen, Germany), 2 μl of a solution of CDK9/CycT1 in aqueous assay buffer [50 mM Tris/HCl pH 8.0, 10 mM MgCl2, 1.0 mM dithiothreitol, 0.1 mM sodium ortho-vanadate, 0.01% (v/v) Nonidet-P40 (Sigma)] were added and the mixture was incubated for 15 min at 22° C. to allow pre-binding of the test compounds to the enzyme before the start of the kinase reaction. Then the kinase reaction was started by the addition of 3 μl of a solution of adenosine-tri-phosphate (ATP, 16.7 μM=>final conc. in the 5 μl assay volume is 10 μM) and substrate (1.67 μM=>final conc. in the 5 μl assay volume is 1 μM) in assay buffer and the resulting mixture was incubated for a reaction time of 25 min at 22° C. The concentration of CDK9/CycT1 was adjusted depending of the activity of the enzyme lot and was chosen appropriate to have the assay in the linear range, typical concentrations were in the range of 1 μg/ml. The reaction was stopped by the addition of 5 μl of a solution of TR-FRET detection reagents (0.2 μM streptavidine-XL665 [Cisbio Bioassays, Codolet, France] and 1 nM anti-RB(pSer807/pSer811)-antibody from BD Pharmingen [#558389] and 1.2 nM LANCE EU-W1024 labeled anti-mouse IgG antibody [Perkin-Elmer, product no. AD0077]) in an aqueous EDTA-solution (100 mM EDTA, 0.2% (w/v) bovine serum albumin in 100 mM HEPES/NaOH pH 7.0).
as §1, with “HTRF” for “TR-FRET”

T2 sequence (P50750 whole entry): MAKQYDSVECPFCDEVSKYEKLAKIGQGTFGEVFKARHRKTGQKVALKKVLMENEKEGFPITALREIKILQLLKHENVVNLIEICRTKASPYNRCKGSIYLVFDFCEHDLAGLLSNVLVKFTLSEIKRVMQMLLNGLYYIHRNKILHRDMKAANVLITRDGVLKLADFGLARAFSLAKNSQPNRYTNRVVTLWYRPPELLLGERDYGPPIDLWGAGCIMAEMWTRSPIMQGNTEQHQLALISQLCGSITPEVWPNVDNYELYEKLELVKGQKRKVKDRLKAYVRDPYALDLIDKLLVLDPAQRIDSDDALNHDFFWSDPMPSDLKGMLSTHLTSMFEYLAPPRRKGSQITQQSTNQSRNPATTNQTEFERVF
T2 sequence (O60563 whole entry partner): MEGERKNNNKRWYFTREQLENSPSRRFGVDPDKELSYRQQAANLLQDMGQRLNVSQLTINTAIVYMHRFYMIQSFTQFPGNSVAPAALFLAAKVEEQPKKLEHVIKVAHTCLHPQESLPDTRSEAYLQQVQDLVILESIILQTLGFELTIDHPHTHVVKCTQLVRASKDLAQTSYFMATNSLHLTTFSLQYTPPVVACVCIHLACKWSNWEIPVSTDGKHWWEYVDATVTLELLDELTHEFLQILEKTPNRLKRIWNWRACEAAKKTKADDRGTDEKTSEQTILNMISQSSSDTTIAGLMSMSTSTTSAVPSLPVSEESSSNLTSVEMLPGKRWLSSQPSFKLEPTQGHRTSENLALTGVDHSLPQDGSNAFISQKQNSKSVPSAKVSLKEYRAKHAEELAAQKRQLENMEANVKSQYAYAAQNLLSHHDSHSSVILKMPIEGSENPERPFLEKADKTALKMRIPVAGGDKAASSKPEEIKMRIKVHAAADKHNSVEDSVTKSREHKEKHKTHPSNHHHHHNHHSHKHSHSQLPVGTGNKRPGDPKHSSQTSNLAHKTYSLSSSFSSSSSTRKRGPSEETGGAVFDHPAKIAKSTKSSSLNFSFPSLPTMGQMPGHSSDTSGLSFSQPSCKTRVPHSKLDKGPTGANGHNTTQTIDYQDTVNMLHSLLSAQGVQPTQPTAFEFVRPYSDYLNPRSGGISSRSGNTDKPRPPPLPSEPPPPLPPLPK

SMILES | IC50 (CDK2/CycE) [nM] | IC50 (CDK9/CycT1) [nM]
COc1c(-c2ncnc(Nc3cccc(CS(C)(=O)=O)c3)n2)ccc(F)c1F [Example 2, 4-(3,4-Difluoro-2-methoxyphenyl)-N-{3-[(methylsulfonyl)methyl]phenyl}-1,3,5-triazin-2-amine] | 8600 | 160
CC(C)Oc1cc(F)ccc1-c1ncnc(Nc2cccc(CS(C)(=O)=O)c2)n1 [Example 5, 4-[4-Fluoro-2-(propan-2-yloxy)phenyl]-N-{3-[(methylsulfonyl)methyl]phenyl}-1,3,5-triazin-2-amine] | 1400 | 25
CS(=O)(=O)Cc1cccc(Nc2ncnc(-c3cccc4c3OC(F)(F)O4)n2)c1 [Example 6, 4-(2,2-Difluoro-1,3-benzodioxol-4-yl)-N-{3-[(methylsulfonyl)methyl]phenyl}-1,3,5-triazin-2-amine] | 1300 | 33
CS(=O)(=O)Cc1cccc(Nc2ncnc(-c3ccccc3OC(F)(F)F)n2)c1 [Example 7, N-{3-[(Methylsulfonyl)methyl]phenyl}-4-[2-(trifluoromethoxy)phenyl]-1,3,5-triazin-2-amine] | 5400 | 330
COc1ccc(F)cc1-c1ncnc(Nc2cccc(CS(C)(=O)=O)c2)n1 [Example 11, 4-(5-Fluoro-2-methoxyphenyl)-N-{3-[(methylsulfonyl)methyl]phenyl}-1,3,5-triazin-2-amine] | 1300 | 33
CS(=O)(=O)Cc1cccc(Nc2ncnc(-c3ccc(F)cc3OC(F)F)n2)c1 [Example 15, 4-[2-(Difluoromethoxy)-4-fluorophenyl]-N-{3-[(methylsulfonyl)methyl]phenyl}-1,3,5-triazin-2-amine] | 3900 | 130
CS(=O)(=O)Cc1cccc(Nc2ncnc(-c3ccccc3OCC(F)(F)F)n2)c1 [Example 16, N-{3-[(Methylsulfonyl)methyl]phenyl}-4-[2-(2,2,2-trifluoroethoxy)phenyl]-1,3,5-triazin-2-amine] | 8300 | 74
COc1cc(F)ccc1-c1ncnc(Nc2cccc(CS(=O)(=O)C(C)(C)C)c2)n1 [Example 17, N-{3-[(tert-Butylsulfonyl)methyl]phenyl}-4-(4-fluoro-2-methoxyphenyl)-1,3,5-triazin-2-amine] | 2000 | 47
CS(=O)(=O)Cc1cccc(Nc2ncnc(-c3cccc4c3OC(F)(F)C(F)(F)O4)n2)c1 [Example 19, N-{3-[(Methylsulfonyl)methyl]phenyl}-4-(2,2,3,3-tetrafluoro-2,3-dihydro-1,4-benzodioxin-5-yl)-1,3,5-triazin-2-amine] | 640 | 35
COc1ncccc1-c1ncnc(Nc2cccc(CS(C)(=O)=O)c2)n1 [Example 20, 4-(2-Methoxypyridin-3-yl)-N-{3-[(methylsulfonyl)methyl]phenyl}-1,3,5-triazin-2-amine] | 8200 | 110
CS(=O)(=O)Cc1cccc(Nc2ncnc(-c3cc(F)ccc3OCC3CCOCC3)n2)c1 [Example 21, 4-[5-Fluoro-2-(tetrahydro-2H-pyran-4-ylmethoxy)phenyl]-N-{3-[(methylsulfonyl)methyl]phenyl}-1,3,5-triazin-2-amine] | 8800 | 110
CS(=O)(=O)Cc1cccc(Nc2ncnc(-c3ccccc3OCc3ccccc3Cl)n2)c1 [Example 27, 4-{2-[(2-Chlorobenzyl)oxy]phenyl}-N-{3-[(methylsulfonyl)methyl]phenyl}-1,3,5-triazin-2-amine] | 8800 | 87
CS(=O)(=O)Cc1cccc(Nc2ncnc(-c3cc(F)ccc3OCc3ccccc3F)n2)c1 [Example 30, 4-{5-Fluoro-2-[(2-fluorobenzyl)oxy]phenyl}-N-{3-[(methylsulfonyl)methyl]phenyl}-1,3,5-triazin-2-amine] | 6600 | 32
COc1cc(Cl)ccc1-c1ncnc(Nc2cccc(CS(C)(=O)=O)c2)n1 [Example 32, 4-(4-Chloro-2-methoxyphenyl)-N-{3-[(methylsulfonyl)methyl]phenyl}-1,3,5-triazin-2-amine] | 2300 | 25
COc1cc(F)ccc1-c1ncnc(Nc2cccc(CS(=O)(=O)c3ccccc3)c2)n1 [Example 35, 4-(4-Fluoro-2-methoxyphenyl)-N-{3-[(phenylsulfonyl)methyl]phenyl}-1,3,5-triazin-2-amine] | 2200 | 30
CCOCCOc1cc(F)ccc1-c1ncnc(Nc2cccc(CS(C)(=O)=O)c2)n1 [Example 51, 4-[2-(2-Ethoxyethoxy)-4-fluorophenyl]-N-{3-[(methylsulfonyl)methyl]phenyl}-1,3,5-triazin-2-amine] | 9400 | 80
CS(=O)(=O)Cc1cccc(Nc2ncnc(-c3ccc(F)cc3OCCC3CCCCC3)n2)c1 [Example 63, 4-[2-(2-Cyclohexylethoxy)-4-fluorophenyl]-N-{3-[(methylsulfonyl)methyl]phenyl}-1,3,5-triazin-2-amine] | 7400 | 170
CS(=O)(=O)Cc1cccc(Nc2ncnc(-c3ccc(F)cc3OC3CCC3)n2)c1 [Example 64, 4-[2-(Cyclobutyloxy)-4-fluorophenyl]-N-{3-[(methylsulfonyl)methyl]phenyl}-1,3,5-triazin-2-amine] | 1800 | 34
CS(=O)(=O)Cc1cccc(Nc2ncnc(-c3ccc(F)cc3OC3CCCC3)n2)c1 [Example 65, 4-[2-(Cyclopentyloxy)-4-fluorophenyl]-N-{3-[(methylsulfonyl)methyl]phenyl}-1,3,5-triazin-2-amine] | 2300 | 36
CS(=O)(=O)Cc1cccc(Nc2ncnc(-c3ccc(F)cc3OCC3(F)CCCCC3)n2)c1 [Example 66, 4-{4-Fluoro-2-[(1-fluorocyclohexyl)-methoxy]phenyl}-N-{3-[(methylsulfonyl)-methyl]phenyl}-1,3,5-triazin-2-amine] | 6800 | 22
